# Reference: US20130245064A1, “NOVEL NEUROTRYPSIN INHIBITORS” (priority 2010, published 2013)
# How the values were obtained:
# human neurotrypsin = target: T1, human neurotrypsin (Homo sapiens, UniProt P56730); assay: Determination of IC50 for human neurotrypsin; type: biochemical; details: table of all 14 examples; read-out: Neurotrypsin IC50
# T1 sequence (P56730 21-875): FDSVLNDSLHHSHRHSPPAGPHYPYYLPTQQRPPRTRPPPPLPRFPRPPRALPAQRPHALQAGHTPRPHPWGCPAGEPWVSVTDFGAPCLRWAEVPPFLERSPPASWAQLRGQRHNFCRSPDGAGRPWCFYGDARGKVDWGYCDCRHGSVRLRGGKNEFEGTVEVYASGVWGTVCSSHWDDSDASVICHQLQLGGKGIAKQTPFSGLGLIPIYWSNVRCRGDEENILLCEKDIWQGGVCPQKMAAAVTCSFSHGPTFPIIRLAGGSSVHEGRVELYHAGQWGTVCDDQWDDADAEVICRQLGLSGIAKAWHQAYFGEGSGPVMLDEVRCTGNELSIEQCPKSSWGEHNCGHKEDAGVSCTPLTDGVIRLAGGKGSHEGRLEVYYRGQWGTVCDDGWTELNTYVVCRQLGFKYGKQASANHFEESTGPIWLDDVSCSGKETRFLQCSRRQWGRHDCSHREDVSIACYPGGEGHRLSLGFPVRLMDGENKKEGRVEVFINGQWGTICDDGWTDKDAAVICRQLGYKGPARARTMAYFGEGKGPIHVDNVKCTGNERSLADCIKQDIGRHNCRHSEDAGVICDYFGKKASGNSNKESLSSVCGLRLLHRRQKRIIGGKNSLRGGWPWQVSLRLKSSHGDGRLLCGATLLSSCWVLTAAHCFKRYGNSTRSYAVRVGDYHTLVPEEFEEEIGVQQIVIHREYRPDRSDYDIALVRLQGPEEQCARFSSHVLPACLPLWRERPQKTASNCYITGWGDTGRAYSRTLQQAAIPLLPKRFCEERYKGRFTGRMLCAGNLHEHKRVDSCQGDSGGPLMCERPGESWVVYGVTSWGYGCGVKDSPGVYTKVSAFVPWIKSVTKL
# Description: Determination of IC50 for Human Neurotrypsin
# Assessment of the potency of compounds of examples 1-14 in inhibiting the enzymatic activity of human neurotrypsin was performed according to the method described in patent application […]
Molecule,IC50 (human neurotrypsin) [µM],melting point [°C]
"1-(2-Hydroxy-4-(5,6-dichloro-1H-benzo[d]imidazol-2-yl)-benzoyl)-4-benzylpiperidine [Example 10]",18.3,
"O=C(Nc1ccccc1F)c1ccc(NC(=O)c2[nH]c3ccc(Cl)cc3c2-c2ccccc2)cc1O [Example 2, N-(2-Fluorophenyl)-4-(5-chloro-3-phenyl-indole-2-carbonyl)amino-2-hydroxybenzamide]",32.8,> 220
O=C(Nc1ccc(C(=O)Nc2ccc(Cl)cc2)c(O)c1)c1ccc(-c2ccc(F)cc2)cc1 [Example 3],7.6,> 220
"O=C(Nc1ccc(Cl)cc1)c1ccc(NC(=O)c2sc3ccccc3c2Cl)cc1O [Example 4, N-(4-Chlorophenyl)-4-[(3-chlorobenzo[b]-thiophene-2-carbonyl)amino]-2-hydroxybenzamide]",55.5,> 220
O=C(Nc1ccc(C(=O)Nc2ccc(Cl)cc2)c(O)c1)c1ccc(Oc2ccc(Cl)c(Cl)c2)cc1 [Example 5],13.9,> 220
O=C(Nc1ccc(C(=O)Nc2ccc(Cl)cc2)c(O)c1)c1ccc(-c2ccc(F)cc2)s1 [Example 6],3.4,> 220
"O=C(Nc1ccc(C(=O)Nc2ccc(Cl)cc2)c(O)c1)c1ccc2cc(Cl)c(Cl)cc2n1 [Example 7, N-(4-Chlorophenyl)-4-(6,7-dichloroquinoline-2-carbonyl)amino-2-hydroxybenzamide]",26.7,> 220
"O=C(Nc1ccc(Cl)cc1)c1ccc(NC(=O)c2[nH]c3ccc(Cl)cc3c2-c2ccccc2)cc1O [Example 8, N-(4-Chlorophenyl)-4-(5-chloro-3-phenylindole-2-carbonyl)amino-2-hydroxybenzamide]",10.8,> 220
"CC(C)CN(CC(C)C)C(=O)c1ccc(NC(=O)c2ccc(-c3nc4cc(Cl)c(Cl)cc4[nH]3)cc2)cc1O [Example 13, N,N-Diisobutyl-2-hydroxy-4-((5,6-dichloro-1H-benzo[d]imidazol-2-yl)-benzamido)benzamide]",55.1,

# The next molecules have a lower IC50 (human neurotrypsin) than those just listed; values first:
IC50 (human neurotrypsin) [µM],melting point [°C],Molecule
1.9,> 220,"O=C(Nc1ccc(C(=O)Nc2ccc(Cl)cc2F)c(O)c1)c1ccc(-c2nc3cc(Cl)c(Cl)cc3[nH]2)cc1 [Example 9, N-(2-Fluoro-4-chloro-phenyl)-4-(4-(5,6-di-chloro-1H-benzo[d]imidazol-2-yl)-benzamido)-2-hydroxybenzamide]"
1.7,> 220,"CCCCc1ccc(NC(=O)c2ccc(NC(=O)c3ccc(-c4nc5cc(Cl)c(Cl)cc5[nH]4)cc3)cc2O)cc1 [Example 14, N-(4-Butylphenyl)-4-(4-(5,6-dichloro-1H-benzo[d]imidazol-2-yl)-benzamido)-2-hydroxybenzamide]"
1.5,,"1-(2-Hydroxy-4-(5,6-dichloro-1H-benzo[d]imidazol-2-yl)-benzoyl)-4-phenoxypiperidine [Example 12]"
1.1,> 220,"O=C(Nc1ccc(C(=O)Nc2ccc(F)cc2F)c(O)c1)c1ccc(-c2nc3cc(Cl)c(Cl)cc3[nH]2)cc1 [Example 11, N-(2,4-Difluorophenyl)-4-(4-(5,6-dichloro-1H-benzo[d]imidazol-2-yl)-benzamido)-2-hydroxybenzamide]"
